Measured values as given in PubChem BioAssay (NCI).
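Grown in 96-well plates, cells were treated for 48 hours with each compound at five concentrations. Insufficient inhibition: endpoint recorded as highest concentration tested. GI50 marks 50% less growth. The concentration for full growth arrest is given as TGI.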

Columns and labels:
Assay in all cases: NCI anticancer screen, dose series, 48 h
HL-60(TB) leukemia = system: HL-60(TB) leukemia
LOX IMVI melanoma = system: LOX IMVI melanoma
NCI-H460 lung = system: NCI-H460 lung
SW-620 colon = system: SW-620 colon
SK-MEL-5 melanoma = system: SK-MEL-5 melanoma
SF-295 CNS = system: SF-295 CNS
CAKI-1 renal = system: CAKI-1 renal
M14 melanoma = system: M14 melanoma
IGROV1 ovarian = system: IGROV1 ovarian
MDA-MB-231 breast = system: MDA-MB-231 breast

Row | Structure (SMILES) | TGI (HL-60(TB) leukemia) | TGI (LOX IMVI melanoma) | TGI (NCI-H460 lung) | TGI (SW-620 colon) | TGI (SK-MEL-5 melanoma) | TGI (SF-295 CNS) | TGI (CAKI-1 renal) | TGI (M14 melanoma) | TGI (IGROV1 ovarian) | GI50 (LOX IMVI melanoma) | GI50 (NCI-H460 lung) | GI50 (MDA-MB-231 breast) | TGI (MDA-MB-231 breast) | GI50 (SW-620 colon) | GI50 (SK-MEL-5 melanoma) | GI50 (SF-295 CNS) | GI50 (CAKI-1 renal) | GI50 (M14 melanoma) | GI50 (IGROV1 ovarian) | GI50 (HL-60(TB) leukemia)
1 | COc1nc2c(nc(N)n2C2OC(CO)C(O)C(O)C2O)c(=O)n1C (stereo unspecified) | > 100 µM | > 100 µM | > 100 µM | > 100 µM | > 100 µM | > 100 µM | > 100 µM | > 100 µM | > 100 µM | – | – | – | – | – | – | – | – | – | – | –
2 | CC(C)(C)c1ccccc1NS(=O)(=O)c1ccccc1 | > 100 µM | – | > 100 µM | > 100 µM | > 100 µM | > 100 µM | > 100 µM | > 100 µM | > 100 µM | – | – | – | – | – | – | – | – | – | – | –
3 | Cc1ccc(Cl)cc1Nc1nc(C(F)(F)F)ccc1C(=O)Oc1ccc(Cl)cc1 | – | 21.9 µM | 54.2 µM | > 100 µM | 26.8 µM | 21.7 µM | 13.2 µM | > 100 µM | > 100 µM | 5.21 µM | 16.4 µM | 4.53 µM | 20.6 µM | 17 µM | 7.01 µM | 7.08 µM | 3.31 µM | 18.1 µM | 11.1 µM | –
4 | O=C1/C(=C/c2ccc(O)cc2)CCC1CNc1ccc(Cl)cc1 (stereo unspecified) | – | 7.24 µM | 23 µM | 3.03 µM | 20.8 µM | 16.7 µM | 8.84 µM | 3.57 µM | 15.1 µM | – | – | – | 9.56 µM | – | – | – | – | – | – | –
5 | Cc1cc(Cl)ccc1N1C(=O)C(=O)C(c2nc3ccccc3s2)C(=O)C1=O | > 100 µM | – | > 100 µM | > 100 µM | > 100 µM | > 100 µM | > 100 µM | > 100 µM | > 100 µM | – | – | – | – | – | – | – | – | – | – | –
6 | CCOc1ccc(NC(=O)C2=C(C)NC(C)=C(C(=O)Nc3ccc(OCC)cc3)C2c2ccc([N+](=O)[O-])cc2)cc1 | 52.7 µM | > 100 µM | > 100 µM | > 100 µM | 74.3 µM | > 100 µM | > 100 µM | > 100 µM | > 100 µM | – | – | – | – | – | – | – | – | – | – | –
7 | Cc1ccc(/C=C2\CCOC2=O)cc1 | > 100 µM | > 100 µM | > 100 µM | > 100 µM | > 100 µM | – | – | > 100 µM | > 100 µM | > 100 µM | > 100 µM | > 100 µM | > 100 µM | > 100 µM | > 100 µM | – | – | > 100 µM | 82.5 µM | > 100 µM
8 | Cc1nc2cc(O)c(O)cc2cc1Oc1ccc(NC(=O)Nc2ccc(Cl)c(Cl)c2)cc1 | 22.4 µM | – | 15.8 µM | > 32.5 µM | 14.2 µM | > 32.5 µM | 30 µM | 13.8 µM | > 32.5 µM | – | 6.95 µM | 2.49 µM | > 32.5 µM | 4.8 µM | 5.94 µM | 11.4 µM | 4.96 µM | 5.97 µM | 12.3 µM | 9.02 µM
9 | O=C1C(c2ccccc2)=C(c2ccccc2)C(c2ccccc2)/C1=C1\C(=O)C(c2ccccc2)=C(c2ccccc2)C1c1ccccc1 (stereo unspecified) | > 100 µM | > 100 µM | > 100 µM | > 100 µM | > 100 µM | > 100 µM | > 100 µM | > 100 µM | > 100 µM | – | – | – | – | – | – | – | – | – | – | –
10 | CC(C)(C)c1cc(C(O)(C(F)(F)F)C(F)(F)F)c2c(c1)C(C(F)(F)F)(C(F)(F)F)OC(c1ccccc1)(C(C)(C)C)N2 (stereo unspecified) | – | – | 11.7 µM | 16.7 µM | 10.3 µM | 19.8 µM | 16.4 µM | 12.3 µM | 16.7 µM | – | – | – | – | – | – | – | – | – | – | –
11 | O=C(/C=C/c1ccccc1F)C(c1ccccc1)c1ccccc1 | 11.8 µM | 3.2 µM | – | 11.5 µM | – | 5.91 µM | 17.8 µM | 6.81 µM | 30.7 µM | – | – | – | – | – | – | – | – | – | – | –
12 | O=C(NC(=S)NS(=O)(=O)c1ccc(N2N=C3c4ccccc4CC3C2c2cccs2)cc1)c1ccccc1 (stereo unspecified) | – | 31.7 µM | > 100 µM | > 100 µM | 46.5 µM | 78.6 µM | 77.4 µM | 58.9 µM | > 100 µM | 15.2 µM | > 100 µM | 22.5 µM | 90.1 µM | 34.8 µM | 16.9 µM | 25.4 µM | 26.1 µM | 21.5 µM | 3.14 µM | –
13 | CC(=O)O[C@H]1CC[C@@]2(C)C(=CC[C@@H]3C2CC[C@]2(C)Nc4oncc4CC32)C1 (stereo partly specified) | 31.9 µM | – | 48.8 µM | > 100 µM | 33.2 µM | > 100 µM | > 100 µM | > 100 µM | > 100 µM | – | – | – | – | – | – | – | – | – | – | –
14 | O=C(OCCOCCOC(=O)c1c[nH]cc1-c1ccccc1)c1c[nH]cc1-c1ccccc1 | 55.1 µM | 30.2 µM | 46.9 µM | 76.5 µM | 30.5 µM | 35.7 µM | 83.1 µM | 28.2 µM | 42.5 µM | – | – | – | – | – | – | – | – | – | – | –
15 | CN(C)/[N+]([O-])=N/Oc1cc(Nc2ccc(C(=O)O)cc2)c([N+](=O)[O-])cc1[N+](=O)[O-] | 58.8 µM | 33.6 µM | > 100 µM | > 100 µM | 41.3 µM | 34 µM | 51.7 µM | – | 34.4 µM | 19 µM | 32.2 µM | 17 µM | 31.3 µM | 45.4 µM | 20.2 µM | 16.9 µM | 22.1 µM | – | 14.9 µM | 18.5 µM
16 | Cc1ccc(S(=O)(=O)N2CCCCC2CCO)cc1 (stereo unspecified) | > 100 µM | – | > 100 µM | > 100 µM | > 100 µM | > 100 µM | > 100 µM | > 100 µM | > 100 µM | – | – | – | – | – | – | – | – | – | – | –
17 | C[Si](C)(C)/C(Br)=C\CCN1C(=O)CCC1O (stereo unspecified) | – | > 100 µM | > 100 µM | > 100 µM | – | > 100 µM | – | > 100 µM | > 100 µM | – | – | – | – | – | – | – | – | – | – | –
18 | Cc1cc2c(=O)cc(-c3ccc(Cl)cc3)oc2c(C(=O)O)c1C | – | > 100 µM | > 100 µM | > 100 µM | > 100 µM | > 100 µM | > 100 µM | > 100 µM | > 100 µM | – | – | – | – | – | – | – | – | – | – | –
19 | Cn1cccc1-c1cc(-c2ccc(Br)cc2)nc(N)c1C#N | > 100 µM | > 100 µM | > 100 µM | > 100 µM | > 100 µM | > 100 µM | > 100 µM | – | > 100 µM | > 100 µM | > 100 µM | 69.9 µM | > 100 µM | > 100 µM | > 100 µM | > 100 µM | > 100 µM | – | 70 µM | 0.413 µM
